Assay results published in patent publication US20250345458A1, “COMPLEXING AGENT SALT FORMULATIONS OF PHARMACEUTICAL COMPOUNDS AT LOW STOICHIOMETRIC RATIOS” (Bexson Biomedical, Inc., priority 2022, published 2025).
Where “and” joins values, the source holds several entries; their conditions need not be identical. Identical values can stand only once. Entries after “also recorded” stand apart in the source; their conditions may differ. Counter-ions that a name gives are not always drawn. Marks after values point to notes of the source that are not given here.

How the values were obtained:
[1] = pH of API formulations (pH meter); format: physicochemical; settings: for pH of the solution prior to titration: 70 mg/mL API FB, before NaOH/HCl; for final pH: after 2M NaOH
[2] = literature value; cited from earlier work
[3] = Osmolality of API formulations (micro osmometer, triplicate); format: physicochemical
Experimental: Osmolality readings were obtained on an Advanced Instruments Advanced™ Micro Osmometer Model 3300 (Advanced Instruments, Inc. Norwood, MA, USA). Saline solutions (0.9% and 3%) were run as positive controls. Each sample was calculated as the mean from back-to-back triplicate measurements. When replicate batches were measured, data was reported as mean±SEM.
The procedure was performed on a 2 mL scale. […] Benzethonium chloride (20 μL of a 1% solution, 0.01% final concentration) was added via micropipette. The pH was adjusted to ˜7.00 with 2M sodium hydroxide, or either 1M or 2M HCl in some cases, and then the mixture was transferred to a 2 mL volumetric flask to be diluted with HPLC grade water. […]
Method 1: In a 5 mL borosilicate glass test tube which contained a Teflon-coated magnetic stir bar, Captisol®-Na+ ([…], H+ equivalents, moisture corrected) was dissolved in HPLC grade water (1.6-1.7 mL), API salt (HCl in most cases) (70 mg/mL FB equivalents) was added and the mixture was stirred until a homogenous transparent solution formed. Benzethonium chloride (20 μL of a 1% solution, giving a 0.01% final concentration) was added via micropipette. The pH was adjusted to ˜7.00 with 1M or 2M sodium hydroxide, or either 1M or 2M HCl in some cases, and then the mixture was transferred to a 2 mL volumetric flask to be diluted with HPLC grade water. […]
Benzethonium chloride (20 μL of a 1% solution, giving a 0.01% final concentration) was added via micropipette. The pH was adjusted to ˜7.00 with 1M or 2M sodium hydroxide, or either 1M or 2M HCl in some cases, and then the mixture transferred to a 2 mL volumetric flask to be diluted with HPLC grade water. […]
The solution was transferred to a 2 mL volumetric flask and diluted to the target volume with HPLC grade water. […]

[4] = cited from earlier work
[5] = Dissolution of API freebase in aqueous CapAcid / Captisol solutions at defined API:CapAcid ratios, visual inspection and NaOH titration
[6] = in water, cited from earlier work; for Reported Freebase Solubility: vendor or literature value
[7] = API-CapAcid salts prepared in ethanol, then 70 mg of solid added to 1 mL water (visual); format: physicochemical; settings: for pH of the ethanol solution prior to titration: API FB 100 mg + CapAcid 1 molar equivalent (H^+) in 10 mL 200 proof ethanol; for dissolution of 70 mg of the ethanol-prepared API-CapAcid solid in 1 mL water: visual, vortexed
Experimental: The resulting solid API-CapAcid salts were then obtained as solids by evaporation of the ethanol, followed by lyophilization.
In a scintillation vial, a solution of API FB (100 mg) and CapAcid (1 molar equivalent, moisture corrected) was prepared by dissolving Cap Acid in 200 proof ethanol (5 mL) and then adding the freebase API. […] Whether or not the freebase dissolved after the second addition of ethanol, the initial pH, prior to titration, was recorded. The vial was then wrapped in foil and left uncovered in the hood to allow the ethanol to evaporate. After the ethanol fully evaporated, a small amount of HPLC grade water (3-5 mL) was added to each to see if the product would dissolve or become a suspension in the water. The solution was then lyophilized to remove the water. The product was ground with a stir rod and 70±0.1 mg was added to 1 mL of water to see if it would dissolve.

[8] = Osmolality of API formulations (micro osmometer, triplicate); format: physicochemical; remark: listed apart in the source
[9] = cited from earlier work; remark: listed apart in the source
[10] = Visual dissolution / precipitation of API free base-CapAcid formulations at stated API:CapAcid ratios; format: physicochemical
[11] = Concentration test of rimantadine HCl in water; format: physicochemical
Experimental: A solution of 50 mg/mL rimantadine HCl, FB equivalents, (120.3 mg, 0.56 mmol), was prepared by adding 1.7 mL of HPLC grade water and an addition of a solution of benzethonium chloride (20 μL, […], 0.01% final concentration). […] It was diluted until it did dissolve, which took a total of 4.6 mL of HPLC (including the initial 1.7 mL). The solution was left to stir overnight. The solution was diluted to 5 mL, making the final concentration 20 mg/mL. The pH was 6.83 and the solution was filtered through a 0.20 micron syringe filter. The osmolality was 205 mOsm/kg.
A separate test was performed on another 50 mg/mL solution of rimantadine HCl, FB equivalents (60.2 mg, 0.28 mmol), dissolved in 800 μL of HPLC grade water and an addition of a solution of benzethonium chloride (10 μL, 1 mg/mL, 0.01% final concentration).

[12] = Stability of tigecycline FB CapAcid solution on standing; format: physicochemical; settings: 70 mg/mL FB with 1.1 molar equivalents of CapAcid, FIG. 1A
Experimental: The formulation of Tigecycline FB CapAcid was prepared as follows. The preparation procedure for Tigecycline FB CapAcid Formulation was modified from the general procedure. A solution of 70 mg/mL Tigecycline FB (69.9 mg, 0.12 mmol) and 1.1 equivalents of CapAcid, H^+ equivalents, (43.7 mg moisture corrected, 40.8 mg active, 0.02 mmol, 0.13 mmol H^+) was prepared by dissolving CapAcid in 700 μL of HPLC grade water, then adding the freebase and stirring until a homogenous solution formed. Benzethonium chloride (10 μL, 1 mg/mL, 0.01% final concentration) was added to the solution. NaOH (2M) was added until the pH was 7.00±0.01. The solution was diluted to 1 mL and the final pH was determined to be 6.99. […] The solution was filtered through a 0.45 micron syringe filter.

[13] = 1 equivalent 6M HCl, 1.1 equivalents Captisol®-Na^+
[14] = 70 mg/mL API FB and 1 equivalent of 6M HCl in water
[15] = 70 mg/mL API FB, 1 equivalent of 6M HCl, 1.1 equivalents Captisol®-Na^+
[16] = *70 mg/mL API FB + molar equivalent of 6M HCl in water
[17] = API FB CapAcid formulation, 70 mg/mL API FB, 1.1 equivalents CapAcid (H^+ equivalents), after titration
[18] = CapAcid-API Freebase Formulation (70 mg/mL API FB, 1.1 molar equivalent CapAcid), after pH titration with NaOH or HCl
[19] = Captisol®-Na^+ formulation, *70 mg/mL API FB + 6M HCl, 1.1 molar equivalent Captisol®-Na^+
[20] = 1:1 ratio of API to CapAcid (relative to the cyclodextrin), water
[21] = 2:1 ratio of API to CapAcid, 100 mg FB in 30 mL water (3 mg/mL)
[22] = 2:1 ratio of API to CapAcid (relative to the cyclodextrin), water
[23] = concentration test solution diluted to 20 mg/mL, with benzethonium chloride

SMILES: NCC[C@H](O)C(=O)N[C@@H]1C[C@H](N)[C@@H](O[C@H]2O[C@H](CN)[C@@H](O)[C@H](O)[C@H]2O)[C@H](O)[C@H]1O[C@H]1O[C@H](CO)[C@@H](O)[C@H](N)[C@H]1O [Amikacin]
- pH of the solution prior to titration [1, 13]: 1.28
- pH of the solution prior to titration ([1]; 1.1 equivalents CapAcid): 1.13 and 1.25
- pKa [2]: 8.1^14
- Osmolality [3, 14]: 287 mOsmol/kg
- Osmolality [3, 15]: 504.3 mOsmol/kg
- Osmolality [3, 16]: 287* mOsm/kg
- Osmolality [3, 17]: 268 mOsmol/kg and 252.2 mOsmol/kg
- Osmolality [3, 18]: 1: 268 mOsm/kg and 2: 252.3 mOsm/kg
- Osmolality [3, 19]: 504.3* mOsm/kg

SMILES: CC(=O)[C@H]1CC[C@H]2[C@@H]3CC[C@H]4C[C@H](O)CC[C@]4(C)[C@H]3CC[C@]12C [Brexanolone]
- oral bioavailability [4]: poor

SMILES: COc1c(OCCCN2CCOCC2)ccc2c1N=C(NC(=O)c1cnc(N)nc1)N1CCN=C21 [Copanlisib]
- concentration (FB equivalents) at which the freebase dissolved [5, 20]: 33300 µg/mL
- dissolution by visual inspection [5, 21]: clear with a small amount of undissolved oil
- pH at which precipitation occurred on titration with NaOH ([5]; 2:1 ratio of API to CapAcid, target 3 mg/mL): 2.20
- pH of the solution before titration ([1]; 1:1 ratio of API to CapAcid): 0.76
- final pH ([1]; 1:1 ratio of API to CapAcid): 6.13
- pH of the solution before titration ([1]; 2:1 ratio of API to CapAcid): 2.10
- Reported Freebase Solubility [6]: Insoluble^19
- Reported Salt Solubility [6]: 0.023 mg/mL^18
- pH of the ethanol solution prior to titration [7]: 0.66
- dissolution of 70 mg of the ethanol-prepared API-CapAcid solid in 1 mL water [7]: became cloudy with a brown precipitate at the bottom

SMILES: CCOC(=O)c1ncn2c1CN(C)C(=O)c1cc(F)ccc1-2 [Flumazenil]
- Successful in a 70 mg/mL API-CapAcid Formulation (Y/N) ([5]; water, 70 mg/mL FB): unsuccessful
- Reported Freebase Solubility [6]: 1.2 mg/mL
- pKa [2]: 2.87^21

SMILES: N=C(N)c1ccc2cc(OC(=O)c3ccc(N=C(N)N)cc3)ccc2c1 [Nafamostat]
- concentration (FB equivalents) at which the freebase dissolved [5, 20]: 33300 µg/mL
- concentration (FB equivalents) at which the freebase dissolved [5, 22]: 3000 µg/mL
- concentration at which the freebase dissolved ([5]; API FB with Captisol® Sodium 1 molar equivalent, water, stirring 30 minutes): ~16700 µg/mL
- pH of the solution before titration ([1]; 1:1 ratio of API to CapAcid): 0.49
- final pH ([1]; 1:1 ratio of API to CapAcid): 6.99
- pH of the solution before titration ([1]; 2:1 ratio of API to CapAcid): 1.55
- final pH ([1]; 2:1 ratio of API to CapAcid): 6.96
- Osmolality ([8]; API FB with Captisol® Sodium, 1 molar equivalent relative to the cyclodextrin, after 48 hours): 354.3 mOsm/Kg

SMILES: CO[C@H]1C[C@@H]2CC[C@@H](C)[C@@](O)(O2)C(=O)C(=O)N2CCCC[C@H]2C(=O)O[C@H]([C@H](C)C[C@@H]2CC[C@@H](O)[C@H](OC)C2)CC(=O)[C@H](C)/C=C(\C)[C@@H](O)[C@@H](OC)C(=O)[C@H](C)C[C@H](C)/C=C/C=C/C=C/1C [Rapamycin, rapamycin]
- reported strongest acidic pKa [9]: 9.96
- strongest basic pKa [9]: −3

SMILES: CC(N)C12CC3CC(CC(C3)C1)C2 (centres unmarked) [Rimantadine HCl]
- pH [1, 23]: 6.83
- Osmolality [8, 23]: 205 mOsm/kg
- dissolution state of the formulation ([10]; HCl): fully dissolved; also recorded: incompletely dissolved
- dissolution at 50 mg/mL, FB equivalents ([11]; HPLC grade water with 0.01% benzethonium chloride): did not dissolve
- solubility ([11]; pH 6.83, aqueous with cosolvent or surfactant or cyclodextrin, thermodynamic from solid, HPLC grade water, stirred overnight, read-out: concentration at which the salt was soluble in water (FB equivalents)): 20 mg/mL

SMILES: CN(C)c1cc(NC(=O)CNC(C)(C)C)c(O)c2c1C[C@H]1C[C@H]3[C@H](N(C)C)C(O)=C(C(N)=O)C(=O)[C@@]3(O)C(O)=C1C2=O [Tigecycline, tigecycline]
- pH of the solution prior to titration [1, 13]: 5.61
- pH of the solution prior to titration ([1]; 1.1 equivalents CapAcid): 5.19 and 5.37
- Reported Freebase Solubility [6]: 0.45 mg/mL
- stability of the formulation [12]: degradation after 24 hours
- Osmolality [3, 14]: 138.3 mOsmol/kg
- Osmolality [3, 15]: 330.3 mOsmol/kg
- Osmolality ([3]; 70 mg/mL FB, 1.1 equivalents CapAcid, 1 mL scale, recorded the next day after the solution had turned yellow-brown): 158.7 mOsmol/kg
- Osmolality [3, 16]: 138.3* mOsm/kg
- Osmolality [3, 17]: 99.3 mOsmol/kg and 92.7 mOsmol/kg
- Osmolality [3, 18]: 1: 99.3 mOsm/kg and 2: 92.7 mOsm/kg
- Osmolality [3, 19]: 330.3* mOsm/kg

SMILES: CN1CCC[C@@H]1Cc1c[nH]c2ccc(CCS(=O)(=O)c3ccccc3)cc12 [eletriptan]
- concentration (FB equivalents) at which the freebase dissolved [5, 20]: 33300 µg/mL
- concentration (FB equivalents) at which the freebase dissolved [5, 22]: ~8300 µg/mL
- dissolution by visual inspection ([5]; 4:1 ratio of API to CapAcid, 100 mg FB in 30 mL water, stirring for 2 days): most of the FB dissolved and the solution was cloudy
- pH of the solution before titration ([1]; 1:1 ratio of API to CapAcid): 0.48
- final pH ([1]; 1:1 ratio of API to CapAcid): 6.06
- pH of the solution before titration ([1]; 2:1 ratio of API to CapAcid): 1.42
- final pH ([1]; 2:1 ratio of API to CapAcid): 6.08
- pH of the solution before titration ([1]; 4:1 ratio of API to CapAcid): 2.34
- final pH ([1]; 4:1 ratio of API to CapAcid): 6.01
- Reported Salt Solubility [6]: <1 mg/mL^16
- solubility compared to higher API:captisol ratio ([10]; 2:1 ratio to captisol compared to 4:1 ratio): superior solubility
- appearance at higher API:captisol ratio ([10]; 4:1 ratio to captisol): precipitation
- pH of the ethanol solution prior to titration [7]: 8.02
- dissolution of 70 mg of the ethanol-prepared API-CapAcid solid in 1 mL water [7]: became cloudy but a large amount of oil remained at the bottom

SMILES: CCCN(CCc1cccs1)[C@H]1CCc2c(O)cccc2C1 [rotigotine]
- concentration (FB equivalents) at which the freebase dissolved [5, 20]: 10000 µg/mL
- concentration (FB equivalents) at which the freebase dissolved [5, 22]: 3000 µg/mL
- dissolution by visual inspection [5, 21]: most of the FB dissolved
- pH of the solution before titration ([1]; 1:1 ratio of API to CapAcid): 0.93
- final pH ([1]; 1:1 ratio of API to CapAcid): 5.49
- pH of the solution before titration ([1]; 2:1 ratio of API to CapAcid): 1.66
- final pH ([1]; 2:1 ratio of API to CapAcid): 5.51
- Reported Salt Solubility [6]: 3.51 mg/mL^17
- solubility compared to higher API:captisol ratio ([10]; 1:1 ratio to captisol compared to 2:1 ratio): superior solubility
- appearance at higher API:captisol ratio ([10]; 2:1 ratio to captisol): precipitation
- pH of the ethanol solution prior to titration [7]: 5.63
- dissolution of 70 mg of the ethanol-prepared API-CapAcid solid in 1 mL water [7]: did not dissolve in water
- pKa (amine) [2]: 10.97
- pKa (phenol) [2]: 10.03
